According to article PMC6208443 (Nature Communications, 2018):

Tests used:
Format in all cases: binding, Arabidopsis thaliana
Conditions in all cases: result in words
CMT3 = assay: Peptide affinity purification and mass spectrometry, CMT3
Method: (§1) To extract the nuclear proteins for peptide affinity purification, 1 g of wild-type Arabidopsis flowers was harvested and ground in liquid nitrogen. […] The filtrates were centrifuged at 2000 g for 15 min at 4 °C to precipitate the nuclei. Nuclear pellets were washed two times with 1 ml of Honda buffer and then were resuspended in 600 μl of Nuclei Lysis Buffer (50 mM Tris-HCl pH 8.0, 150 mM NaCl, 1% NP40, 0.5 mM DTT, 1 mM PMSF, Roche protease inhibitor cocktail). After sonication, nuclei extracts were centrifuged at 20,000 g for 10 min at 4 °C. The supernatant was incubated with 2 μg of biotinylated histone peptides and Streptavidin Magnetic Beads (Thermo Scientific, 88816) for 3 h with rotation at 4 °C. […] After incubation, beads were washed three times with wash buffer 1 (320 mM NaCl, 50 mM Tris-HCl pH 8.0, 0.5% NP40), and three times with wash buffer 2 (150 mM NaCl, 50 mM Tris-HCl pH 8.0).
(§2) For LC-MS/MS analysis, IP beads with captured proteins were lysed in 12 mM sodium deoxycholate (SDC)-sodium lauroyl sarcosinate (SLS): 100 mM Tris-HCl (pH 8.5), 12 mM SDC, and 12 mM SLS. Proteins were reduced and alkylated with 10 mM tris-(2-carboxyethyl) phosphine and 40 mM chloroacetamide at 95 °C for 5 min. The supernatant containing reduced and alkylated proteins was transferred into a new Eppendorf tube and diluted fivefold with 50 mM triethylammonium hydrogen carbonate buffer and digested with 500 ng trypsin (Sigma) overnight. The SDC and SLS were removed by adding 100% acetyl acetate in a ratio 1:1 (vol/vol) sample to acetyl acetate volume ratio. Samples were acidified with 10% trifluoroacetic acid to pH ~3, and desalted by a custom-made stage tip with a styrene divinyl benzene (SDB-XC) membrane (3 M). The dried peptides were resuspended in 30 μL of 0.3% formic acid (FA) with 3% acetonitrile (ACN), quantified by BCA assay (Thermo Fisher Scientific), and injected into an Easy-nLC 1000 (Thermo Fisher Scientific). Peptides were separated on a 45 cm in-house packed column (360 μm OD × 75 μm ID) containing C18 resin (2.2 μm, 100 Å, Michrom Bioresources) with a 30 cm column heater (Analytical Sales and Services) set at 60 °C. The mobile phase buffer consisted of 0.1% FA in ultra-pure water (buffer A) with an eluting buffer of 0.1% FA in 80% ACN (buffer B) run over a linear 65 min gradient of 5%-30% buffer B at a flow rate of 250 nL/min. The Easy-nLC 1000 was coupled online with a Velos Pro LTQ-Orbitrap mass spectrometer (Thermo Fisher Scientific). […] Search was performed with full tryptic digestion and allowed a maximum of two missed cleavages on the peptides analyzed from the sequence database. […]

AGDP1 = assay: Peptide affinity purification and mass spectrometry, AGDP1
Method: as §1
(§3) For LC-MS/MS analysis, IP beads with captured proteins were lysed in 12 mM sodium deoxycholate (SDC)-sodium lauroyl sarcosinate (SLS): 100 mM Tris-HCl (pH 8.5), 12 mM SDC, and 12 mM SLS. Proteins were reduced and alkylated with 10 mM tris-(2-carboxyethyl) phosphine and 40 mM chloroacetamide at 95 °C for 5 min. The supernatant containing reduced and alkylated proteins was transferred into a new Eppendorf tube and diluted fivefold with 50 mM triethylammonium hydrogen carbonate buffer and digested with 500 ng trypsin (Sigma) overnight. The SDC and SLS were removed by adding 100% acetyl acetate in a ratio 1:1 (vol/vol) sample to acetyl acetate volume ratio. Samples were acidified with 10% trifluoroacetic acid to pH ~3, and desalted by a custom-made stage tip with a styrene divinyl benzene (SDB-XC) membrane (3 M). The dried peptides were resuspended in 30 μL of 0.3% formic acid (FA) with 3% acetonitrile (ACN), quantified by BCA assay (Thermo Fisher Scientific), and injected into an Easy-nLC 1000 (Thermo Fisher Scientific). Peptides were separated on a 45 cm in-house packed column (360 μm OD × 75 μm ID) containing C18 resin (2.2 μm, 100 Å, Michrom Bioresources) with a 30 cm column heater (Analytical Sales and Services) set at 60 °C. The mobile phase buffer consisted of 0.1% FA in ultra-pure water (buffer A) with an eluting buffer of 0.1% FA in 80% ACN (buffer B) run over a linear 65 min gradient of 5%-30% buffer B at a flow rate of 250 nL/min. The Easy-nLC 1000 was coupled online with a Velos Pro LTQ-Orbitrap mass spectrometer (Thermo Fisher Scientific). The mass spectrometer was operated in the data-dependent mode in which a full MS scan (from m/z 350–1500 with the resolution of 30,000 at 400 m/z) was followed by the 10 most intense ions being subjected to collision-induced dissociation (CID) fragmentation. […]

CMT2 = assay: Peptide affinity purification and mass spectrometry, CMT2
Method: as §1, §2

EDM2 = assay: Peptide affinity purification and mass spectrometry, EDM2
Method: as §1, §3

| Substance | presence in pull-down products (CMT3) | identification from pull-down samples (AGDP1) | presence in pull-down products (CMT2) | presence in pull-down products (EDM2) |
| --- | --- | --- | --- | --- |
| H3(1-21): synthesized biotinylated H3(1-21) peptide, EMD Millipore | not in H3 pull-down products | not from the H3 pull-down samples | not in H3 pull-down products | not in H3 pull-down products |
| H3(1-21)K9me1: synthesized biotinylated H3(1-21)K9me1 peptide, EMD Millipore | present | identified | present | present |
| H3(1-21)K9me2: synthesized biotinylated H3(1-21)K9me2 peptide, EMD Millipore | present | identified | present | present |
| H3(1-21)K9me3: synthesized biotinylated H3(1-21)K9me3 peptide, EMD Millipore | present | identified | present | present |
